Columns and labels:
Format in all cases: in vivo
[1] = tested on: rice leafroller (Cnaphalocrocis medinalis); experiment: Insecticidal effect on rice leafroller (Test Example 3); conditions: 500 ppm, 25° C., humidity 70%; for Insecticidal effect (Test Example 3), judged from mortality / Insecticidal effect on rice leafroller (Test Example 3), judged grade: rice lamina dip; for Insecticidal effect (Test Example 3), judged from mortality: 4 days after inoculation; for Insecticidal effect, Test Example 3: rice lamina immersed; for Insecticidal effect, Test Example 3 / Insecticidal effect on rice leafroller (Test Example 3), judged grade: four days after inoculation; for Insecticidal effect on rice leafroller (Test Example 3), judged grade: third-instar larvae
Summary of the method: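 Insecticidal effect is judged by a predefined criterion from dead/alive counts four days after infesting air-dried lamina with third-instar larvae, kept on moistened filter paper at 25° C, 70% humidity.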

[2] = tested on: common cutworm (Spodoptera Litura); experiment: Insecticidal effect on common cutworm (Test Example 2); conditions: 500 ppm, 25° C.; for Insecticidal effect (Test Example 2), judged from mortality / Insecticidal effect on common cutworm (Test Example 2), judged grade: cabbage leaf dip; for Insecticidal effect (Test Example 2), judged from mortality: 8 days after inoculation; for Insecticidal effect, Test Example 2: cabbage leaf immersed; for Insecticidal effect, Test Example 2 / Insecticidal effect on common cutworm (Test Example 2), judged grade: eight days after inoculation; for Insecticidal effect on common cutworm (Test Example 2), judged grade: second-instar larvae
Summary of the method: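 Second-instar larvae placed in 9 cm Petri dishes with air-dried treated material, held at 25 °C. Dead and live insects counted 8 days after inoculation; mortality calculated and scored against a set criterion. Triplicate groups of 10 insects.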

[3] = tested on: diamondback moth (Plutella xylostella); experiment: Insecticidal effect on diamondback moth (Test Example 1); conditions: for Insecticidal effect (Test Example 1), judged from mortality / Insecticidal effect, Test Example 1: diamondback moth; for Insecticidal effect (Test Example 1), judged from mortality: judged by the criterion of Test Example 1; for Insecticidal effect on diamondback moth (Test Example 1), judged grade: mortality judged according to the criterion shown in Test Example 1
Summary of the method: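 Triplicate groups of 10 insects: eggs laid on Chinese cabbage seedling by adults, seedling immersed then air-dried, kept at 25° C. Day-6 hatch counts gave mortality, rated by criterion.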

[4] = third-instar larvae of rice leafroller
[5] = second-instar larvae of common cutworm
[6] = rice leafroller third-instar larvae
[7] = common cutworm second-instar larvae
[8] = mortality judged by criterion of Test Example 1
[9] = judged by the mortality criterion of Test Example 1

Row | Structure (SMILES) | Insecticidal effect, Test Example 3 [1, 6] | Insecticidal effect, Test Example 2 [2, 7] | Insecticidal effect, Test Example 1 [3, 8] | Insecticidal effect, Test Example 3 [1, 4] | Insecticidal effect, Test Example 2 [2, 5] | Insecticidal effect, Test Example 1 [3, 9] | other results
1 | Cc1cc(C(F)(F)C(F)(F)F)ccc1NC(=O)c1cccc(Cl)c1C(=O)NC(C)(C)C#Cc1ccc(F)cc1F [compound 1650] |  |  |  |  |  |  | Insecticidal effect (Test Example 3), judged from mortality [1, 4]: A (100); Insecticidal effect (Test Example 2), judged from mortality [2, 5]: A (100); Insecticidal effect (Test Example 1), judged from mortality [3]: A (100)
2 | Cc1cc(C(F)(C(F)(F)F)C(F)(F)F)ccc1NC(=O)c1ccc(F)c(Cl)c1C(=O)NC(C)C [compound 1229] | A (100) | A (100) | A (100) |  |  |  | 
3 | CCNC(=O)c1c(I)cccc1C(=O)Nc1ccc(C(F)(F)C(F)(F)F)cc1C [compound 1313] | A (100) | A (100) | A (100) |  |  |  | 
4 | CCc1cc(C(F)(F)C(F)(F)F)ccc1NC(=O)c1cccc(Cl)c1C(=O)N(CC)CC [compound 1543] |  |  |  |  |  |  | Insecticidal effect (Test Example 3), judged from mortality [1, 4]: A (100); Insecticidal effect (Test Example 2), judged from mortality [2, 5]: A (100); Insecticidal effect (Test Example 1), judged from mortality [3]: A (100)
5 | CCN(CC)C(=O)c1c(I)cccc1C(=O)Nc1ccc2c(c1)OC(F)C(F)(F)O2 (stereo not drawn) [compound 1151] | A (100) | A (100) | A (100) |  |  |  | 
6 | Cc1cc(OC(F)(F)C(F)(Br)C(F)(F)F)ccc1NC(=O)c1cccc(Cl)c1C(=O)NC(C)C (stereo not drawn) [compound 148] |  |  |  | A (100) | A (100) | A (100) | 
7 | CC(C)NC(=O)c1c(Cl)cccc1C(=O)Nc1ccc(OC(F)(F)C(F)OC(F)(F)C(F)(F)C(F)(F)F)cc1 (stereo not drawn) [compound 93] |  |  |  | A (100) | A (100) | A (100) | 
8 | Cc1c(Cl)ccc(NC(=O)c2cccc(I)c2C(=O)NC(C)C)c1C [compound 365] |  |  |  | A (100) | A (100) | A (100) | 
9 | CC(C)NC(=O)c1ccccc1C(=O)Nc1ccc(OC(F)F)cc1C(F)(F)F [compound 83] |  |  |  | A (100) | A (100) | A (100) | 
10 | Cc1cc(OC(F)(F)F)ccc1NC(=O)c1cccc(C(F)(F)F)c1C(=O)NC(C)(C)C [compound 1230] | A (100) | A (100) | A (100) |  |  |  | 
11 | Cc1cc(OC(F)(F)C(F)(Br)C(F)(F)F)ccc1NC(=O)c1c(I)cccc1C(=O)NC(C)C (stereo not drawn) [compound 446] |  |  |  |  |  |  | Insecticidal effect on rice leafroller (Test Example 3), judged grade [1]: A (100); Insecticidal effect on common cutworm (Test Example 2), judged grade [2]: A (100); Insecticidal effect on diamondback moth (Test Example 1), judged grade [3]: A (100)
12 | CC(C)NC(=O)c1c(F)cccc1C(=O)Nc1ccc(C(F)(F)C(F)(F)F)cc1 [compound 891] |  |  |  |  |  |  | Insecticidal effect on rice leafroller (Test Example 3), judged grade [1]: A (100); Insecticidal effect on common cutworm (Test Example 2), judged grade [2]: A (100); Insecticidal effect on diamondback moth (Test Example 1), judged grade [3]: A (100)
13 | Cc1cc(C(F)(F)C(F)(F)C(F)(F)C(F)(F)F)ccc1NC(=O)c1cccc(F)c1C(=O)NC(C)C [compound 498] |  |  |  |  |  |  | Insecticidal effect on rice leafroller (Test Example 3), judged grade [1]: A (100); Insecticidal effect on common cutworm (Test Example 2), judged grade [2]: A (100); Insecticidal effect on diamondback moth (Test Example 1), judged grade [3]: A (100)
14 | Cc1cc(C(F)(F)C(F)(F)F)c(Cl)cc1NC(=O)c1cccc(I)c1C(=O)NC(C)(C)C [compound 1654] |  |  |  |  |  |  | Insecticidal effect (Test Example 3), judged from mortality [1, 4]: A (100); Insecticidal effect (Test Example 2), judged from mortality [2, 5]: A (100); Insecticidal effect (Test Example 1), judged from mortality [3]: A (100)
15 | Cc1cc(OC(F)(F)Br)ccc1NC(=O)c1cccc(Cl)c1C(=O)NC(C)(C)C [compound 1050] | A (100) | A (100) | A (100) |  |  |  | 
16 | CCCC(C)NC(=O)c1c(I)cccc1C(=O)Nc1ccc(C(F)(F)C(F)(F)F)cc1C (stereo not drawn) [compound 1009] | A (100) | A (100) | A (100) |  |  |  | 
17 | Cc1cc(Oc2ncc(C(F)(F)F)cc2Cl)ccc1NC(=O)c1cccc(Cl)c1C(=O)NC(C)C [compound 159] |  |  |  | A (100) | A (100) | A (100) | 
18 | CC(C)NC(=O)c1c(Br)cccc1C(=O)Nc1ccc(OC(F)(F)F)cc1Br [compound 287] |  |  |  | A (100) | A (100) | A (100) | 

Row | Structure (SMILES) | Insecticidal effect, Test Example 3 [1, 6] | Insecticidal effect, Test Example 2 [2, 7] | Insecticidal effect, Test Example 1 [3, 8] | Insecticidal effect, Test Example 3 [1, 4] | Insecticidal effect, Test Example 2 [2, 5] | Insecticidal effect, Test Example 1 [3, 9] | other results
19 | CC(C)(C)NC(=O)c1c(Cl)cccc1C(=O)Nc1ccc(C(F)(F)C(F)(F)F)cc1F [compound 1448] |  |  |  |  |  |  | Insecticidal effect (Test Example 3), judged from mortality [1, 4]: A (100); Insecticidal effect (Test Example 2), judged from mortality [2, 5]: A (100); Insecticidal effect (Test Example 1), judged from mortality [3]: A (100)
20 | Cc1cc(OC(F)(F)C(F)(F)c2ccccc2)ccc1NC(=O)c1cccc(Cl)c1C(=O)NC(C)C [compound 1087] | A (100) | A (100) | A (100) |  |  |  | 
21 | CCCCNC(=O)c1c(I)cccc1C(=O)Nc1ccc(C(F)(F)C(F)(F)F)cc1C [compound 945] | A (100) | A (100) | A (100) |  |  |  | 
22 | CC(C)NC(=O)c1ccccc1C(=O)Nc1ccc(C(F)(F)C(F)(F)C(F)(F)F)cc1 [compound 27] |  |  |  | C (89-80) | A (100) | A (100) | 
23 | CC(C)NC(=O)c1c(Cl)cccc1C(=O)Nc1ccc(F)c(F)c1F [compound 116] |  |  |  | A (100) | D (79-50) | A (100) | 
24 | Cc1cc(C(F)(F)C(F)(F)F)ccc1NC(=O)c1cccc(Cl)c1C(=O)NC(C)(C)c1cccc(Cl)c1 [compound 1485] |  |  |  |  |  |  | Insecticidal effect (Test Example 3), judged from mortality [1, 4]: A (100); Insecticidal effect (Test Example 2), judged from mortality [2, 5]: A (100); Insecticidal effect (Test Example 1), judged from mortality [3]: A (100)
25 | Cc1cc(Oc2ccc(C(F)(F)F)cn2)ccc1NC(=O)c1cccc(F)c1C(=O)NC(C)C [compound 523] |  |  |  |  |  |  | Insecticidal effect on rice leafroller (Test Example 3), judged grade [1]: A (100); Insecticidal effect on common cutworm (Test Example 2), judged grade [2]: A (100); Insecticidal effect on diamondback moth (Test Example 1), judged grade [3]: A (100)
26 | CCN(CC)C(=O)c1c(Cl)cccc1C(=O)Nc1ccc(OC(F)(F)C(F)F)cc1C [compound 1539] |  |  |  |  |  |  | Insecticidal effect (Test Example 3), judged from mortality [1, 4]: A (100); Insecticidal effect (Test Example 2), judged from mortality [2, 5]: A (100); Insecticidal effect (Test Example 1), judged from mortality [3]: A (100)
27 | Cc1cc(Cl)ccc1NC(=O)c1c(Br)cccc1C(=O)NC(C)C [compound 306] |  |  |  | A (100) | A (100) | A (100) | 
28 | CCN(CC)C(=O)c1c(I)cccc1C(=O)Nc1ccc(-c2ccc(Cl)cc2)cc1C [compound 1615] |  |  |  |  |  |  | Insecticidal effect (Test Example 3), judged from mortality [1, 4]: A (100); Insecticidal effect (Test Example 2), judged from mortality [2, 5]: A (100); Insecticidal effect (Test Example 1), judged from mortality [3]: A (100)
29 | Cc1cc(C(F)(F)C(F)(F)F)ccc1NC(=O)c1c(I)cccc1C(=O)NC(C)(C)C [compound 943] | A (100) | C (89-80) | A (100) |  |  |  | 
30 | Cc1cc(OC(F)(F)F)ccc1NC(=O)c1ccc(I)cc1C(=O)NC(C)C [compound 1246] | A (100) | A (100) | A (100) |  |  |  | 
31 | Cc1cc(C(F)(F)C(F)(F)F)ccc1NC(=O)c1cccc(I)c1C(=O)NC(C)(C)C [compound 942] | A (100) | A (100) | A (100) |  |  |  | 
32 | CC(C)NC(=O)c1c(C(=O)Nc2ccc(C(O)(C(F)(F)F)C(F)(F)F)cc2)cccc1[N+](=O)[O-] [compound 979] | A (100) | A (100) | A (100) |  |  |  | 
33 | Cc1cc(OC(F)F)c(Cl)cc1NC(=O)c1cccc(I)c1C(=O)NC(C)C [compound 396] |  |  |  | A (100) | A (100) | A (100) | 
34 | CC(C)(C)NC(=O)c1cccc(Cl)c1C(=O)Nc1ccc(C(F)(F)F)cc1 [compound 935] |  |  |  |  |  |  | Insecticidal effect on rice leafroller (Test Example 3), judged grade [1]: A (100); Insecticidal effect on common cutworm (Test Example 2), judged grade [2]: A (100); Insecticidal effect on diamondback moth (Test Example 1), judged grade [3]: A (100)
35 | Cc1c(Cl)cccc1NC(=O)c1ccccc1C(=O)NC(C)C [compound 49] |  |  |  | A (100) | A (100) | A (100) | 
36 | Cc1cc(C(F)(F)C(F)(F)C(F)(F)F)ccc1NC(=O)c1ccccc1C(=O)NC(C)C [compound 56] |  |  |  | A (100) | A (100) | A (100) | 

From patent US6362369B1, “Phthalic acid diamide derivatives fluorine-containing aniline compounds as starting material, agricultural and horticultural insecticides, and a method for application of the insecticides” (Nihon Nohyaku Co., Ltd., priority 1997, dated 2002)
